Assay results taken from patent US5043332A, “Novel 11β-substituted -19-nor-steriods” (priority 1981, dated 1991).

Experiments:
[1] = target: T1, Gluocorticoid receptor of thymus of rats (Rattus norvegicus, UniProt P06536); assay: Glucocorticoid receptor binding (displacement of tritiated dexamethasone); conditions: incubation 4 H at 0° C.
T1 construct: The thymus were removed and homogenized at 0° C; from tissue; host or cells: rat thymus, 105,000 g supernatant (adrenalectomized male Sprague-Dawley rats)
T1 sequence (P06536 1-795): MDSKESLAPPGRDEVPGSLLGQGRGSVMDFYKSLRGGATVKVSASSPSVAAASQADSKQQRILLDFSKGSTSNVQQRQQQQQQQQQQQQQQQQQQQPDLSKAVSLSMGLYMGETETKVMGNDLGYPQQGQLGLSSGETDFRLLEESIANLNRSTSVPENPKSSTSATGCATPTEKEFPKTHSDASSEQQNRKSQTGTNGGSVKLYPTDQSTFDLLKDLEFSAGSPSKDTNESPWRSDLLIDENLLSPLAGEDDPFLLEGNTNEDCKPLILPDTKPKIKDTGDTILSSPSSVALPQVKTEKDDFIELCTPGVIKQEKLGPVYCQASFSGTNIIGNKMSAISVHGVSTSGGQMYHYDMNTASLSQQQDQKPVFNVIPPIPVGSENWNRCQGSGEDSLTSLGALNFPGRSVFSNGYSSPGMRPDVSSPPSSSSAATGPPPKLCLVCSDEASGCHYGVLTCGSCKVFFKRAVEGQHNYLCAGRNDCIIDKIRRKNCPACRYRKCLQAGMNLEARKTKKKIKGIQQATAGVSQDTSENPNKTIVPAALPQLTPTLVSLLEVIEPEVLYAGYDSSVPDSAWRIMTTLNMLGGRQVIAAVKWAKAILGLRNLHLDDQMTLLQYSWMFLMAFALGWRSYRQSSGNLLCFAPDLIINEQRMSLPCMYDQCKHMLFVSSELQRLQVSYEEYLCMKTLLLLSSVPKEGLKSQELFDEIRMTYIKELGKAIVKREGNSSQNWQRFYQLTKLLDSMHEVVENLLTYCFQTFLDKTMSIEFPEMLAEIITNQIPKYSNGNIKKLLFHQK
Description: D. Gluocorticoid receptor of thymus of rats
Male Sprague-Dawley EPOS rats weighing 160 to 200 g were surrenalectomized and the animals were killed 4 to 8 days later. The thymus were removed and homogenized at 0° C. in a buffered TS solution of 10 mM, Tris, 0.25M of Saccharose, 2 mM of dithiothreitol HCl for a pH of 7.4 using a polytetrafluoroethylene-glass Potter at a rate of 1 g of tissue per 10 ml of TS. […] The concentration of tied tritiated dexamethasone (B) was measured for each incubate by the adsorption on carbon-dextran technique.
(§1) The calculation of the relative affinity of […] (ARL) was identical for all of the above receptor tests. One traced the following two curves: the percentage of tied tritiated hormone B/T as a function of the logarithm of the cold hormone concentration and B/T as a function of the logarithm of the concentration of the cold test product. One determined the line of the equation. [formula]
(§2) The intersection of the I50 line and the curves permits one to determine the concentrations of the cold hormone of the reference (CH) and the cold test compound (CX) which inhibit by 50% the tieing of tritiated hormone with the receptor. The relative affinity of tieing (ARL) of the test product was determined by the equation: [formula]

[2] = target: T2, Estrogen receptor of uterus of mice (Mus musculus, UniProt P19785); assay: Estrogen receptor binding (displacement of tritiated estradiol); conditions: for agonist or antagonistic activity to estrogens: concluded from receptor affinity
T2 construct: the uterus were removed and homogenized at 0° C; from tissue; host or cells: mouse uterus, 105,000 g supernatant (immature females 18 to 21 days old)
T2 sequence (P19785 1-599): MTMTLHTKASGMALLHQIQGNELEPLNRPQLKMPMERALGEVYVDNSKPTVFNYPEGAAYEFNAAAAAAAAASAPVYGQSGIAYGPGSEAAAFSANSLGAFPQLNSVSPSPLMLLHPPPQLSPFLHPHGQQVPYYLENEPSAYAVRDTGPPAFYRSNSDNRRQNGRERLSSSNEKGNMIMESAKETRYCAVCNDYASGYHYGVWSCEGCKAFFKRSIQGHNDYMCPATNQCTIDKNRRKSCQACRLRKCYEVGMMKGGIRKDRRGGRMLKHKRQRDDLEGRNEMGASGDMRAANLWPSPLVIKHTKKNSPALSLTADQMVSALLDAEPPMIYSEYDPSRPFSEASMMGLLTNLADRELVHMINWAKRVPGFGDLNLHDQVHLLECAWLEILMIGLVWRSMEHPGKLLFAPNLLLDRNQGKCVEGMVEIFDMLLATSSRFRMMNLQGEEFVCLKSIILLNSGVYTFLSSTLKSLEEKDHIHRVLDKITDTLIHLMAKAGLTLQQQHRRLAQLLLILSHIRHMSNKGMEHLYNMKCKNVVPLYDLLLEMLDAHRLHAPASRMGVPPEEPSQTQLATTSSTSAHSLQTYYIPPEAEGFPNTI
Description: E. Estrogen receptor of uterus of mice
Immature female mice 18 to 21 days old were killed and the uterus were removed and homogenized at 0° C. with a polytetrafluoroethylene-glass Potter in a buffered TS solution consisting of 10 mM, Tris, 0125M Saccharose, HCl for a pH of 7.4 at a rate of 1 g of tissue per 25 ml of TS. The homogenate was then ultracentrigued at 105,000 g for 90 minutes at 0° C. and aliquoits of the resulting […] were incubated at 0° C. for a time (t) with a constant concentration (T) of tritiated estradiol in the presence of increasing concentrations (0 to 1000×10^-9 M) of either cold estradiol or cold test compound. The concentration of tied tritiated estradiol (B) was measured for each incubate by the technique of adsorption on carbon-dextran.
as §1, §2

[3] = target: T3, Androgen receptor of prostate of rats (Rattus norvegicus, UniProt P15207); assay: Androgen receptor binding (displacement of tritiated product P)
T3 construct: The prostates were removed, weighed and homogenized at 0° C; from tissue; host or cells: rat prostate, 105,000 g supernatant (castrated male Sprague-Dawley rats)
T3 sequence (P15207 1-902): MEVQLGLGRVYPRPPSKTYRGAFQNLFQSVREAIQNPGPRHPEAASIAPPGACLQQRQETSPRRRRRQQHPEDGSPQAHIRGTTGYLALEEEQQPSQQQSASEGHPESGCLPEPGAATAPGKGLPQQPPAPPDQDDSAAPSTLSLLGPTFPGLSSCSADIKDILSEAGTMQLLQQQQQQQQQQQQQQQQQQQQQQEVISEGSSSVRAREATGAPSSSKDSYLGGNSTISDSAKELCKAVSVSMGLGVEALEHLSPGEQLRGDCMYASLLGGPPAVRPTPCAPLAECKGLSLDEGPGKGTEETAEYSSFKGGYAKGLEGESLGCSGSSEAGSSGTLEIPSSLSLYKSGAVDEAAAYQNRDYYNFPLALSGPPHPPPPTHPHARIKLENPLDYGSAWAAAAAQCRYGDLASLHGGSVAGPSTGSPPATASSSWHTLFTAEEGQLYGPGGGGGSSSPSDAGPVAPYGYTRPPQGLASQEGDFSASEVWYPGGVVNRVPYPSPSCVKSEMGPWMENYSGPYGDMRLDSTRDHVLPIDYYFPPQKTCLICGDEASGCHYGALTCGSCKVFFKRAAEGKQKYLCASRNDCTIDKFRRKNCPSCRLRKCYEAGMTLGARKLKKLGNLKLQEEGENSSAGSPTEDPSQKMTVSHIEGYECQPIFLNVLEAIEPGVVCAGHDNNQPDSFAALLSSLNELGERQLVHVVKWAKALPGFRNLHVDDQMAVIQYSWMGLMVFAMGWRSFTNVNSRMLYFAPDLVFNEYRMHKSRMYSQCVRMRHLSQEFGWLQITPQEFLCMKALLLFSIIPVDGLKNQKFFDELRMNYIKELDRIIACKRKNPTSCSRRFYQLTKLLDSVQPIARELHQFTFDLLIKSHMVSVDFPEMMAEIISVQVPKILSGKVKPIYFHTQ
Description: B. Androgen receptor of prostate of rats
Male Sprague-Dawley EPOS rats weighing of 160 to 200 g were castrated and 24 hours later, the animals were killed. The prostates were removed, weighed and homogenized at 0° C. with a polytetrafluoroethylene-glass Potter with a buffered TS solution (Tris, 10 mM, 0.25M Saccharose, HCl-pH of 7.4) using 1 g of tissue per 5 ml of TS. The homogenate was then ultracentrifuged at 105,000 g for 60 […] (T) of product P or 17α-methyl-Δ^4,9,11 -estratriene-17β-ol-3-one in the presence of increasing concentration (0-1,000×10^-9 M) of either cold P, cold testosterone or the test compound. The concentration of tied tritiated (B) was measured for each incubate by the technique of adsorption on carbon-dextran.
as §1, §2

uterine endometrium [4] = assay: Progestomimetic activity, oral, change in uterine endometrium (McPhail); assay type: in vivo, immature female rabbits; conditions: progesterone 0.2 mg/kg subcutaneously
Description: (§3) IV. Progestomimetic and Anti-progestomimetic Activity
(§4) a) Groups of immature female rabbits weighing about 1 kg had administered to them subcutaneously from day 1 to day 5, 5 μg of estradiol. The product tested was afterward administered orally from day 8 to day 11 in a volume of 0.5 cm^3 of water containing 0.5% of carboxymethyl cellulose and 0.2% of Tween. On day 12, the rabbits were sacrificed, their uteruses were retained and fixed in Bouin's solution and histologically studied.
(§5) The changes in the uterine endometrium were noted according to the method of McPhail.

uterine endometrium [5] = assay: Anti-progestomimetic activity versus progesterone, oral, change in uterine endometrium (McPhail); assay type: in vivo, immature female rabbits; conditions: progesterone 0.2 mg/kg subcutaneously, alone
Description: as §3, §4, §5

uterine endometrium [6] = assay: Anti-progestomimetic activity versus progesterone, intrauterine, change in uterine endometrium (McPhail); assay type: in vivo, immature female rabbits; conditions: progesterone alone 10 μg/rabbit, method of McPhail
Description: Groups of three immature female rabbits weighing about 1 kg were topically treated on the dorsal skin with 25 μg of estradiol in 10 μl of ethanol on day 1. On day 4 the product to be tested dissolved in 0.1 ml, of sesame oil containing 5% benzyl alcohol was introduced into a part of the uterus isolated between two ligatures. On the sixth day the animals were sacrificed, their uteruses retained and fixed in Bouin's solution for histological examination. Changes in the uterine endometrium were noted after the method of McPhail.

Row | SMILES | relative affinity of tieing (ARL), Glucocorticoid [1] | agonist or antagonistic activity to estrogens [2] | relative affinity of tieing (ARL), Estrogen ([2]; incubation 2 H at 0° C.) | relative affinity of tieing (ARL), Estrogen ([2]; incubation 5 H (25° C.)) | relative affinity of tieing (ARL), Androgen ([3]; incubation 1/2H at 0° C.) | relative affinity of tieing (ARL), Androgen ([3]; incubation 24 H at 0° C.) | CHANGE IN THE ENDOMETRIUM (uterine endometrium [4]) [McPHAIL UNTS] | CHANGE IN THE ENDOMETRIUM (uterine endometrium [5]) [McPHAIL UNTS] | CHANGE IN THE ENDOMETRIUM (uterine endometrium [6])
1 | CN(C)CCOc1ccc([C@H]2C[C@]3(C)[C@@H](O)CC[C@H]3[C@@H]3CCc4cc(O)ccc4[C@H]32)cc1 [Example 13, 11β-[4-(2-dimethylaminoethoxy)-phenyl]-Δ^1,3,5(10) -estratriene-3,17β-diol] | 3,9 | present an agonist or antagonistic activity to estrogens | 78 | 239 | 5 | 6 | – | – | –
2 | CN(C)CCOc1ccc([C@H]2C[C@]3(C)[C@@H](O)CC[C@H]3[C@@H]3CCc4ccccc4[C@H]32)cc1 [Example 14, 11β-[4-(2-dimethylaminoethoxy)-phenyl]-Δ^1,3,5(10) -estratriene-17β-ol] | 0,4 | present an agonist or antagonistic activity to estrogens | 4,1 | 1,4 | 10,6 | 0,5 | – | – | –
3 | CN(C)CCOc1ccc2c(c1)CC[C@@H]1[C@@H]2[C@@H](c2ccccc2)C[C@]2(C)[C@@H](O)CC[C@@H]12 [Example 15, 3-(2-dimethylamino-ethoxy)-11β-phenyl-Δ^1,3,5(10) -estratriene-17β-ol] | 2 | – | 0,1 | 0,1 | 1,3 | 0,2 | – | – | –
4 | CC(=O)[C@H]1CC[C@H]2[C@@H]3CCC4=CC(=O)CC[C@]4(C)[C@H]3CC[C@]12C [Progesterone, progesterone, reference compound] | – | – | – | – | – | – | 3.2 | 3.0 | 2.7
